Experimental data from ChEMBL document CHEMBL1201862, “PubChem BioAssay data set” (2004).
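Following 48 hours of exposure in 96-well plates, responses at five concentrations were used to interpolate endpoints linearly. GI50 marks 50% less growth.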 Calls of active or inactive are those of the source. Rule as the data show it: active = GI50 up to about 1.1 µM and inactive = higher.

Tests used:
Test in all cases: inhibition of tumour cell growth, NCI panel, 48 h
IGROV-1 = test system: IGROV-1
SF-539 = test system: SF-539
NCI-H522 = test system: NCI-H522
CCRF-CEM = test system: CCRF-CEM
ACHN = test system: ACHN
HCT-15 = test system: HCT-15
PC-3 = test system: PC-3
SK-MEL-2 = test system: SK-MEL-2
HOP-62 = test system: HOP-62
SN12C = test system: SN12C
MDA-MB-231 = test system: MDA-MB-231
MCF7 = test system: MCF7
U-251 = test system: U-251
UACC-62 = test system: UACC-62
NCI-H226 = test system: NCI-H226
LOX IMVI = test system: LOX IMVI
KM12 = test system: KM12
A549 = test system: A549
Hs-578T = test system: Hs-578T
HL-60 = test system: HL-60
SR = test system: SR
HT-29 = test system: HT-29
OVCAR-5 = test system: OVCAR-5
SNB-75 = test system: SNB-75
HCC 2998 = test system: HCC 2998
CAKI-1 = test system: CAKI-1
DU-145 = test system: DU-145
SNB-19 = test system: SNB-19
M14 = test system: M14
SF-295 = test system: SF-295
OVCAR-3 = test system: OVCAR-3
A498 = test system: A498
OVCAR-4 = test system: OVCAR-4
TK-10 = test system: TK-10
SK-OV-3 = test system: SK-OV-3
786-0 = test system: 786-0
NCI-H23 = test system: NCI-H23
MOLT-4 = test system: MOLT-4
OVCAR-8 = test system: OVCAR-8
T47D = test system: T47D
HOP-92 = test system: HOP-92
RPMI-8226 = test system: RPMI-8226
UACC-257 = test system: UACC-257
NCI-H460 = test system: NCI-H460
Malme-3M = test system: Malme-3M
EKVX = test system: EKVX
COLO 205 = test system: COLO 205
HCT-116 = test system: HCT-116
SW-620 = test system: SW-620
NCI/ADR-RES = test system: NCI/ADR-RES
SF-268 = test system: SF-268
K562 = test system: K562
BT-549 = test system: BT-549
MDA-N = test system: MDA-N
SK-MEL-5 = test system: SK-MEL-5
MDA-MB-435 = test system: MDA-MB-435
SK-MEL-28 = test system: SK-MEL-28
UO-31 = test system: UO-31
RXF 393 = test system: RXF 393

Measured: GI50

CN(/N=C/c1ccc(Cl)c(Cl)c1)C1=NCCCCN1
26.2 µM: HCT-15
inactive: IGROV-1 52.6 µM | SF-539 29.3 µM | NCI-H522 17.8 µM | CCRF-CEM 31 µM | ACHN 44.6 µM | PC-3 25.3 µM | SK-MEL-2 20.1 µM | HOP-62 16.7 µM | SN12C 42 µM | MDA-MB-231 32 µM | MCF7 19.8 µM | U-251 26.6 µM | UACC-62 23 µM | NCI-H226 2.45 µM | LOX IMVI 13.2 µM | KM12 19.6 µM | A549 62.4 µM | Hs-578T 61 µM | HL-60 19.3 µM | SR 41.3 µM | HT-29 29.2 µM | OVCAR-5 27.9 µM | SNB-75 50.2 µM | HCC 2998 24.9 µM | CAKI-1 23.9 µM | DU-145 91.2 µM | SNB-19 45.4 µM | M14 15.4 µM | SF-295 34.4 µM | OVCAR-3 41.6 µM | A498 18.2 µM | OVCAR-4 44.1 µM | TK-10 69.8 µM | SK-OV-3 53.3 µM | 786-0 20.6 µM | NCI-H23 55.5 µM | MOLT-4 21.8 µM | OVCAR-8 72.3 µM | T47D 16.6 µM | HOP-92 18.9 µM | RPMI-8226 27.9 µM | UACC-257 22.6 µM | NCI-H460 42.5 µM | Malme-3M 17.8 µM | EKVX > 100 µM | COLO 205 16.7 µM | HCT-116 24.4 µM | SW-620 15.6 µM | NCI/ADR-RES 66.8 µM | SF-268 51.2 µM | K562 21.4 µM | BT-549 31 µM | MDA-N 19.9 µM | SK-MEL-5 14.6 µM | MDA-MB-435 16.3 µM

CCOC(=O)C12OC(CCC1=O)C(C(=O)OC)=C2C(=O)OC (stereo not given)
inactive: IGROV-1 > 10 µM | SF-539 > 10 µM | NCI-H522 > 10 µM | CCRF-CEM > 10 µM | ACHN > 10 µM | PC-3 > 10 µM | SK-MEL-28 > 10 µM | SK-MEL-2 > 10 µM | HOP-62 > 10 µM | SN12C > 10 µM | MDA-MB-231 > 10 µM | MCF7 > 10 µM | U-251 > 10 µM | UACC-62 > 10 µM | NCI-H226 > 10 µM | LOX IMVI > 10 µM | KM12 > 10 µM | A549 > 10 µM | Hs-578T > 10 µM | HL-60 > 10 µM | UO-31 > 10 µM | SR > 10 µM | HT-29 > 10 µM | OVCAR-5 > 10 µM | SNB-75 2.26 µM | HCC 2998 > 10 µM | CAKI-1 > 10 µM | DU-145 > 10 µM | SNB-19 > 10 µM | M14 > 10 µM | SF-295 > 10 µM | OVCAR-3 > 10 µM | A498 > 10 µM | OVCAR-4 > 10 µM | TK-10 > 10 µM | SK-OV-3 > 10 µM | 786-0 > 10 µM | NCI-H23 > 10 µM | MOLT-4 > 10 µM | OVCAR-8 > 10 µM | T47D > 10 µM | RPMI-8226 > 10 µM | UACC-257 > 10 µM | NCI-H460 > 10 µM | Malme-3M > 10 µM | EKVX > 10 µM | COLO 205 > 10 µM | HCT-116 > 10 µM | SW-620 > 10 µM | NCI/ADR-RES > 10 µM | SF-268 > 10 µM | K562 > 10 µM | BT-549 > 10 µM | MDA-N > 10 µM | RXF 393 > 10 µM | SK-MEL-5 > 10 µM | MDA-MB-435 > 10 µM
> 10 µM: HCT-15

CC(C)(C)[Si](C)(C)OCC1OC(n2cnc3c(N)ncnc32)CC1O (stereo not given)
81.8 µM: HCT-15
inactive: IGROV-1 76.6 µM | CCRF-CEM 22.6 µM | PC-3 53.1 µM | SK-MEL-28 > 100 µM | SK-MEL-2 56.1 µM | HOP-62 92.7 µM | SN12C > 100 µM | MDA-MB-231 52.5 µM | MCF7 > 100 µM | U-251 > 100 µM | UACC-62 36.9 µM | NCI-H226 53.1 µM | LOX IMVI > 100 µM | KM12 39.6 µM | Hs-578T 55.5 µM | HL-60 20 µM | UO-31 13 µM | SR 34.8 µM | HT-29 > 100 µM | OVCAR-5 60.8 µM | SNB-75 > 100 µM | CAKI-1 86.9 µM | DU-145 95.5 µM | SNB-19 > 100 µM | M14 44.2 µM | SF-295 > 100 µM | OVCAR-3 51.2 µM | A498 81.8 µM | OVCAR-4 71.4 µM | TK-10 > 100 µM | SK-OV-3 81.5 µM | NCI-H23 79.4 µM | MOLT-4 16.1 µM | OVCAR-8 87.9 µM | T47D 41.6 µM | RPMI-8226 52.8 µM | UACC-257 > 100 µM | NCI-H460 97.5 µM | Malme-3M > 100 µM | COLO 205 91.6 µM | HCT-116 > 100 µM | SW-620 > 100 µM | NCI/ADR-RES 40.4 µM | K562 21.8 µM | BT-549 32.7 µM | MDA-N > 100 µM | RXF 393 20.6 µM | SK-MEL-5 35.6 µM | MDA-MB-435 > 100 µM

Cc1nc([N+](=O)[O-])cn1-c1nc2ccccn2c1[N+](=O)[O-]
inactive: IGROV-1 68.9 µM | SF-539 68.2 µM | NCI-H522 55 µM | ACHN > 100 µM | PC-3 38.4 µM | SK-MEL-28 > 100 µM | SK-MEL-2 43.4 µM | HOP-62 55.1 µM | SN12C 30 µM | MDA-MB-231 56.4 µM | MCF7 95.3 µM | U-251 53.2 µM | UACC-62 > 100 µM | NCI-H226 > 100 µM | KM12 48.8 µM | A549 > 100 µM | Hs-578T > 100 µM | UO-31 88.5 µM | SR 42 µM | HT-29 64.9 µM | OVCAR-5 > 100 µM | SNB-75 32.9 µM | HCC 2998 41.2 µM | CAKI-1 53.5 µM | DU-145 26.5 µM | SNB-19 80.2 µM | M14 > 100 µM | SF-295 > 100 µM | OVCAR-3 > 100 µM | A498 > 100 µM | OVCAR-4 > 100 µM | TK-10 67.5 µM | SK-OV-3 47.2 µM | 786-0 61.7 µM | NCI-H23 47.8 µM | OVCAR-8 86.1 µM | T47D 43.7 µM | HOP-92 > 100 µM | RPMI-8226 64.1 µM | UACC-257 99.3 µM | NCI-H460 45.1 µM | Malme-3M 43.8 µM | EKVX 63.7 µM | COLO 205 90.4 µM | HCT-116 74.3 µM | SW-620 > 100 µM | NCI/ADR-RES > 100 µM | SF-268 > 100 µM | K562 80.4 µM | BT-549 > 100 µM | MDA-N 57.4 µM | RXF 393 17.7 µM | SK-MEL-5 81.8 µM | MDA-MB-435 > 100 µM
> 100 µM: HCT-15

COc1cc2c(cc1OC)CCN=C2
inactive: IGROV-1 > 100 µM | CCRF-CEM > 100 µM | PC-3 > 100 µM | SK-MEL-28 > 100 µM | SK-MEL-2 > 100 µM | HOP-62 > 100 µM | SN12C > 100 µM | MDA-MB-231 > 100 µM | MCF7 > 100 µM | U-251 > 100 µM | UACC-62 > 100 µM | NCI-H226 > 100 µM | LOX IMVI > 100 µM | KM12 > 100 µM | Hs-578T > 100 µM | HL-60 > 100 µM | UO-31 > 100 µM | SR > 100 µM | HT-29 > 100 µM | OVCAR-5 > 100 µM | SNB-75 > 100 µM | HCC 2998 > 100 µM | CAKI-1 > 100 µM | DU-145 > 100 µM | SNB-19 > 100 µM | M14 > 100 µM | SF-295 > 100 µM | OVCAR-3 > 100 µM | A498 > 100 µM | OVCAR-4 > 100 µM | TK-10 > 100 µM | SK-OV-3 > 100 µM | NCI-H23 > 100 µM | MOLT-4 > 100 µM | OVCAR-8 > 100 µM | T47D > 100 µM | HOP-92 > 100 µM | RPMI-8226 > 100 µM | UACC-257 > 100 µM | NCI-H460 66.5 µM | Malme-3M > 100 µM | COLO 205 > 100 µM | HCT-116 > 100 µM | SW-620 > 100 µM | NCI/ADR-RES > 100 µM | BT-549 > 100 µM | MDA-N > 100 µM | RXF 393 56.6 µM | SK-MEL-5 > 100 µM | MDA-MB-435 > 100 µM
> 100 µM: HCT-15
